From US6737383B1, “Herbicidal oxadiazolidines” (priority 1999, dated 2004)

How the values were obtained:
crabgrass = assay: Test B pre/postemergence crabgrass; assay type: in vivo, Digitaria sanguinalis
In short: (§1)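 Herbicidal effect was estimated by eye on a ten-point control scale after plants spent twelve to sixteen days in a greenhouse following soil or foliar treatment. Foliar sprays targeted plants at one to four leaves; all doses were formulated in a non-phytotoxic solvent with surfactant.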

wild oat = assay: Test B pre/postemergence wild oat; assay type: in vivo, Avena fatua
In short: as §1

cocklebur = assay: Test B pre/postemergence cocklebur; assay type: in vivo, Xanthium strumarium
In short: as §1

wheat = assay: Test B pre/postemergence wheat; assay type: in vivo, Triticum aestivum
In short: as §1

[1] = Postemergence, Rate 250 g/ha, scale 0 to 10
[2] = Postemergence, Rate 500 g/ha, scale of 0 to 10 where 0 is no effect and 10 is complete control
[3] = Preemergence, Rate 62 g/ha, scale of 0 to 10 where 0 is no effect and 10 is complete control
[4] = Preemergence, Rate 125 g/ha, scale of 0 to 10 where 0 is no effect and 10 is complete control
[5] = Preemergence, Rate 250 g/ha, scale 0 to 10, 0 is no effect, 10 is complete control
[6] = Preemergence, Rate 500 g/ha, scale 0 to 10, 0 is no effect, 10 is complete control
[7] = Rate 62 g/ha, Postemergence, scale 0 to 10, 0 no effect, 10 complete control
[8] = Rate 125 g/ha, Postemergence, scale 0 to 10, 0 is no effect, 10 is complete control

| SMILES | Crabgrass plant response rating (crabgrass; [1]) | Crabgrass plant response rating (crabgrass; [2]) | Plant response rating, Crabgrass (crabgrass; [3]) | Plant response rating, Crabgrass (crabgrass; [4]) | Crabgrass plant response rating (crabgrass; [5]) | Crabgrass plant response rating (crabgrass; [6]) | Crabgrass plant response rating (crabgrass; [7]) | Crabgrass plant response rating (crabgrass; [8]) | Wild oats plant response rating (wild oat; [1]) | Plant response rating, Wild oats (wild oat; [3]) | Plant response rating, Wild oats (wild oat; [4]) | Wild oats plant response rating (wild oat; [5]) | Wild oats plant response rating (wild oat; [6]) | Wild oats plant response rating (wild oat; [7]) | Wild oats plant response rating (wild oat; [8]) | Cocklebur plant response rating (cocklebur; [1]) | Cocklebur plant response rating (cocklebur; [2]) | Plant response rating, Cocklebur (cocklebur; [3]) | Plant response rating, Cocklebur (cocklebur; [4]) | Cocklebur plant response rating (cocklebur; [5]) | also measured |
| --- | --- | --- | --- | --- | --- | --- | --- | --- | --- | --- | --- | --- | --- | --- | --- | --- | --- | --- | --- | --- | --- |
| COC(C)n1c(=O)on(C(=O)N(c2ccc(F)cc2)C(C)C)c1=O (stereo not shown) [Compound 439] | 0 | 0 | 0 | 0 | 0 | 0 | 0 | 0 | 0 | 0 | 0 | 0 | 0 | 0 | 0 | 0 | 0 | 0 | 0 | 0 | Wild oats plant response rating (wild oat; [2]): 0; Cocklebur plant response rating (cocklebur; [6]): 0; Cocklebur plant response rating (cocklebur; [7]): 0; Cocklebur plant response rating (cocklebur; [8]): 0; Wheat plant response rating (wheat; [1]): 0; Wheat plant response rating (wheat; [2]): 0; Plant response rating, Wheat (wheat; [3]): 0; Plant response rating, Wheat (wheat; [4]): 0; Wheat plant response rating (wheat; [5]): 0; Wheat plant response rating (wheat; [6]): 0; Wheat plant response rating (wheat; [7]): 0; Wheat plant response rating (wheat; [8]): 0 |
| Cc1nc(C)c(C(C)n2c(=O)on(C(=O)N(c3ccc(F)cc3F)C(C)C)c2=O)s1 (stereo not shown) [Compound 443] | 0 | 0 | 5 | 6 | 9 | 9 | 0 | 0 | 0 | 0 | 0 | 0 | 0 | 0 | 0 | 0 | 0 | 0 | 0 | 0 | Wild oats plant response rating (wild oat; [2]): 0; Cocklebur plant response rating (cocklebur; [6]): 0; Cocklebur plant response rating (cocklebur; [7]): 0; Cocklebur plant response rating (cocklebur; [8]): 0; Wheat plant response rating (wheat; [1]): 0; Wheat plant response rating (wheat; [2]): 0; Plant response rating, Wheat (wheat; [3]): 0; Plant response rating, Wheat (wheat; [4]): 0; Wheat plant response rating (wheat; [5]): 0; Wheat plant response rating (wheat; [6]): 0; Wheat plant response rating (wheat; [7]): 0; Wheat plant response rating (wheat; [8]): 0 |
| CC(C)N(C(=O)n1oc(=O)n(C(C)C#N)c1=O)c1ccc(Cl)cc1 (stereo not shown) [Compound 451] | 4 | 6 | 0 | 0 | 1 | 7 | 0 | 0 | 0 | 0 | 0 | 0 | 0 | 0 | 0 | 0 | 0 | 0 | 0 | 0 | Cocklebur plant response rating (cocklebur; [6]): 0; Cocklebur plant response rating (cocklebur; [7]): 0; Cocklebur plant response rating (cocklebur; [8]): 0; Wheat plant response rating (wheat; [1]): 0; Plant response rating, Wheat (wheat; [3]): 0; Plant response rating, Wheat (wheat; [4]): 0; Wheat plant response rating (wheat; [5]): 0; Wheat plant response rating (wheat; [6]): 0; Wheat plant response rating (wheat; [7]): 0; Wheat plant response rating (wheat; [8]): 0 |
